Laboratory results: article PMC12340637, “Transport of Small Aliphatic Amines by Polyspecific Solute Carriers: Deciphering Structure–Function Relationships” (ACS Pharmacology & Translational Science, 2025)
Marks after values point to notes of the source that are not given here.

What was measured:
OCT1 (SLC22A1) [1] = biological target: T1, OCT1 (SLC22A1) (Homo sapiens, UniProt O15245); experiment: in vitro; conditions: pH 7.4
T1 sequence (O15245 1-554): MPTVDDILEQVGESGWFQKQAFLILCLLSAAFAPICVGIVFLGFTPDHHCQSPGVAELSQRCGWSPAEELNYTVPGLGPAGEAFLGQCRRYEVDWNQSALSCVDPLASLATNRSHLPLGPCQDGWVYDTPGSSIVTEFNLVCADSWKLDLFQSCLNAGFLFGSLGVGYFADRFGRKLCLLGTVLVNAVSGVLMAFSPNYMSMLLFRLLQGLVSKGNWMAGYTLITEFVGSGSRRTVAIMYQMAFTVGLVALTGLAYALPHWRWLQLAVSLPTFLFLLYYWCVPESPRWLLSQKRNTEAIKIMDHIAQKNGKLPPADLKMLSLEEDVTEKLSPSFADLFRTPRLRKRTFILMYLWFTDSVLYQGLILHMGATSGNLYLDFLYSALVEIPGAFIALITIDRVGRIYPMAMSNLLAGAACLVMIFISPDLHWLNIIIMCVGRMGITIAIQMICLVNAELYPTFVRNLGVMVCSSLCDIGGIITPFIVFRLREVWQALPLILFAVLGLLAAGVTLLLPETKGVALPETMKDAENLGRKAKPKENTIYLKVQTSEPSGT

MATE1 (SLC47A1) [2] = biological target: T2, MATE1 (SLC47A1) (Homo sapiens, UniProt Q96FL8); experiment: in vitro; conditions: pH 7.4
T2 sequence (Q96FL8 1-570): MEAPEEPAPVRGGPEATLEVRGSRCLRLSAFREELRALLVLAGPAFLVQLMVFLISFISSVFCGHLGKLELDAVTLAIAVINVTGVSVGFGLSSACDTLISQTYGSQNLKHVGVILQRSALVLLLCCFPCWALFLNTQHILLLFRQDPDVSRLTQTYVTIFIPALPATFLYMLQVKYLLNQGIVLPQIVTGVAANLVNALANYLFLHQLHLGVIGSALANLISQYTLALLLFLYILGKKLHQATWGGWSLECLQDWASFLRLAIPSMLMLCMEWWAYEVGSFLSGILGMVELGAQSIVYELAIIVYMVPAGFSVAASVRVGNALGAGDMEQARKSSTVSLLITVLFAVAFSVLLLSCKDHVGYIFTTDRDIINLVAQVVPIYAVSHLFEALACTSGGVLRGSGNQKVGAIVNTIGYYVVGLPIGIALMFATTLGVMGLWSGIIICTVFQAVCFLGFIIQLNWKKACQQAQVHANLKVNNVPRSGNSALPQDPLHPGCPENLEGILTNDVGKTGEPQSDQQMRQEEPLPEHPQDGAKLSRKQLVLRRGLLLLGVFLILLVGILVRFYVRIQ

OCT2 (SLC22A2) [3] = biological target: T3, OCT2 (SLC22A2) (Homo sapiens, UniProt O15244); experiment: in vitro; conditions: pH 7.4
T3 sequence (O15244 1-555): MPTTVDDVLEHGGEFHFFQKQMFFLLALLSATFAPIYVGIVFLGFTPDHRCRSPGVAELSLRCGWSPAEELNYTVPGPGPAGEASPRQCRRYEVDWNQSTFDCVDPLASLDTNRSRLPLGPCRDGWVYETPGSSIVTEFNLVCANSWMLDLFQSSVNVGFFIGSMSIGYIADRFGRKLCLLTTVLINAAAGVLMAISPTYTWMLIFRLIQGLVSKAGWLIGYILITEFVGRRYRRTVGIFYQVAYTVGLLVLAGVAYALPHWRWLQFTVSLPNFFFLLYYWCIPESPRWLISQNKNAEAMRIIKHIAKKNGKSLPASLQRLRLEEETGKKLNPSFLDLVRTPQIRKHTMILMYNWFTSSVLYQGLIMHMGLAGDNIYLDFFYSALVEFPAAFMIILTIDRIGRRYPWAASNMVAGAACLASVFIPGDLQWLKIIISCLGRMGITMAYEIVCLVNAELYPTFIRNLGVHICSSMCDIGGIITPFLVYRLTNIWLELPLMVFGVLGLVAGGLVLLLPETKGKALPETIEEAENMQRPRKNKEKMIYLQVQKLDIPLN

MATE2-K (SLC47A2) [4] = biological target: T4, MATE2-K (SLC47A2) (Homo sapiens, UniProt Q86VL8); experiment: in vitro; conditions: pH 7.4
OCT2 (SLC22A2) [5] = biological target: T3, OCT2 (SLC22A2); experiment: Cellular uptake into OCT2-overexpressing HEK293 cells vs EV control cells (HPLC-MS/MS); conditions: for K m (±SEM) / v max (±SEM): OCT2, net uptake, Michaelis–Menten; for higher v max of one enantiomer over the other, OCT2: label = enantiomer with higher v max; for uptake ratio OCT2 (transporter-overexpressing cells over EV control cells): mean (±SD, N): 2.5 μM substrate (§), 2 min, HEK293
OCT3 (SLC22A3) = biological target: T5, OCT3 (SLC22A3) (Homo sapiens, UniProt O75751); experiment: Cellular uptake into OCT3-overexpressing HEK293 cells vs EV control cells (HPLC-MS/MS); conditions: for stereoselectivity OCT3 (uptake ratio of the more strongly transported enantiomer divided by that of the other): label = favoured enantiomer; for uptake ratio OCT3 (transporter-overexpressing cells over EV control cells): mean (±SD, N): 2.5 μM substrate (§), 2 min, HEK293
T5 sequence (O75751 1-556): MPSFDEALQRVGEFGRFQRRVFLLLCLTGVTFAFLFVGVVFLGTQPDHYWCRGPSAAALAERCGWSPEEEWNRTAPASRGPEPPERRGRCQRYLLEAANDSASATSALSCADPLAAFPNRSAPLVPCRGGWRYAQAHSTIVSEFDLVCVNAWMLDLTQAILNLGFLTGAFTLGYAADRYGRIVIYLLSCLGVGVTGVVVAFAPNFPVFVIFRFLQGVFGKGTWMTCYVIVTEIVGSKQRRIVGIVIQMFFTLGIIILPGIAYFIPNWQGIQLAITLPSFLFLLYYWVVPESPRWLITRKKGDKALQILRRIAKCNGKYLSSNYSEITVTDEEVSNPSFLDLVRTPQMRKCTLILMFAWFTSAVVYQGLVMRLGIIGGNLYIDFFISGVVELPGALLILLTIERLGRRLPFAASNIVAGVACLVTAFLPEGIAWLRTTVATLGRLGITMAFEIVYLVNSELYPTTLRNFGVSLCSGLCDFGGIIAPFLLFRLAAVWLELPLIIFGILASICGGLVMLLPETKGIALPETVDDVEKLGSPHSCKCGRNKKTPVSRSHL

OCT1 (SLC22A1) [6] = biological target: T1, OCT1 (SLC22A1); experiment: Cellular uptake into OCT1-overexpressing HEK293 cells vs EV control cells (HPLC-MS/MS); conditions: 2.5 μM substrate (§), 2 min, HEK293
MATE2-K (SLC47A2) [7] = biological target: T4, MATE2-K (SLC47A2); experiment: Cellular uptake into MATE2-K-overexpressing HEK293 cells vs EV control cells (HPLC-MS/MS); conditions: 2.5 μM substrate, 1 min, 30 mM NH4Cl preincubation, HEK293
MATE1 (SLC47A1) [8] = biological target: T2, MATE1 (SLC47A1); experiment: Cellular uptake into MATE1-overexpressing HEK293 cells vs EV control cells (HPLC-MS/MS); conditions: 2.5 μM substrate, 1 min, 30 mM NH4Cl preincubation, HEK293
[9] = listed as (S)-(+)-2-amino-1-Pentanol

T4 sequence (Q86VL8 1-566 isoform Q86VL8-3): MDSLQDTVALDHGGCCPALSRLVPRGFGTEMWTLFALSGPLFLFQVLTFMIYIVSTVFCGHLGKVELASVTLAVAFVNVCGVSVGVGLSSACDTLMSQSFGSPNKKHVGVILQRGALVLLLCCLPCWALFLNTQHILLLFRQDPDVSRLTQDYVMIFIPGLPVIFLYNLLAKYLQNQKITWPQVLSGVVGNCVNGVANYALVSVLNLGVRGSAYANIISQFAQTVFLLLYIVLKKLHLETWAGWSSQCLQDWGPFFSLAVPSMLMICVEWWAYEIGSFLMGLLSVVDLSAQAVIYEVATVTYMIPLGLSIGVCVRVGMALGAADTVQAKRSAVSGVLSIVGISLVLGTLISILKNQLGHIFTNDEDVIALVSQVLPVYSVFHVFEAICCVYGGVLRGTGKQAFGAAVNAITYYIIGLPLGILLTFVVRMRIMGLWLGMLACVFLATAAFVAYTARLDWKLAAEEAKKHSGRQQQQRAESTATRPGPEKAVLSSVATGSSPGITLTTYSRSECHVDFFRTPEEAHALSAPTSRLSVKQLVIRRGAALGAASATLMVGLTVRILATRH

| SMILES | selectivity ratio at 2 min (OCT1 (SLC22A1) [1]) | selectivity ratio at 1 min (MATE1 (SLC47A1) [2]) | selectivity ratio at 2 min (OCT2 (SLC22A2) [3]) | selectivity ratio at 1 min (MATE2-K (SLC47A2) [4]) | K m (±SEM) (OCT2 (SLC22A2) [5]) | v max (±SEM) (OCT2 (SLC22A2) [5]) | higher v max of one enantiomer over the other, OCT2 (OCT2 (SLC22A2) [5]) [fold] | stereoselectivity OCT3 (uptake ratio of the more strongly transported enantiomer divided by that of the other) (OCT3 (SLC22A3)) | also measured |
| --- | --- | --- | --- | --- | --- | --- | --- | --- | --- |
| C[C@@H](N)CCO [(R)-3-aminobutan-1-ol] | 1.1 | 1.9 | 2.7 | 1.4 | – | – | – | – | – |
| CCCC[C@@H](N)CO [(R)-(−)-2-amino-1-hexanol] | 1.1 | 1.2 | – | 1.3 | 59 (±11) μM | 1342 (±84) ^b pmol/mg protein/min | 1.7 | – | – |
| CCC[C@@H](N)CO [(R)-(−)-2-amino-1-pentanol] | 1.1 | 1.5 | – | 1.2 | 198 (±67) μM | 1453 (±179) ^a pmol/mg protein/min | – | – | – |
| CC(C)C[C@@H](N)CO [(R)-(−)-leucinol] | – | 1.1 | – | – | – | – | – | 1.4-fold for (R) | – |
| CC(C)(C)[C@@H](N)CO [(R)-(−)-tert-leucinol] | – | 1.3 | – | 1.5 | – | – | – | – | – |
| CCC[C@H](N)CO [(S)-(+)-2-amino-1-pentanol] | – | – | 1.2 | – | 245 (±83) μM | 2342 (±290) ^a pmol/mg protein/min | 1.6 | 1.1-fold for (S) | uptake ratio OCT1 (transporter-overexpressing cells over EV control cells): mean (±SD, N) (OCT1 (SLC22A1) [6]): 1.0 (0.3, 4); uptake ratio OCT1 (transporter-overexpressing cells over EV control cells): mean (±SD, N) (OCT1 (SLC22A1) [6]; [9]): 1.0; uptake ratio MATE2K (transporter-overexpressing cells over EV control cells): mean (±SD, N) (MATE2-K (SLC47A2) [7]): 1.5 (0.4, 4); uptake ratio MATE2K (transporter-overexpressing cells over EV control cells): mean (±SD, N) (MATE2-K (SLC47A2) [7]; [9]): 1.5; uptake ratio OCT3 (transporter-overexpressing cells over EV control cells): mean (±SD, N) (OCT3 (SLC22A3)): 1.1 (0.2, 4); uptake ratio OCT3 (transporter-overexpressing cells over EV control cells): mean (±SD, N) (OCT3 (SLC22A3); [9]): 1.1; uptake ratio OCT2 (transporter-overexpressing cells over EV control cells): mean (±SD, N) (OCT2 (SLC22A2) [5]): 6.0 (1.7, 4) ^b; uptake ratio OCT2 (transporter-overexpressing cells over EV control cells): mean (±SD, N) (OCT2 (SLC22A2) [5]; [9]): 6.0; K m (±SEM) (OCT2 (SLC22A2) [5]; listed as (S)-2-amino-1-pentanol): 245 µM; uptake ratio MATE1 (transporter-overexpressing cells over EV control cells): mean (±SD, N) (MATE1 (SLC47A1) [8]): 1.1 (0.1, 4); uptake ratio MATE1 (transporter-overexpressing cells over EV control cells): mean (±SD, N) (MATE1 (SLC47A1) [8]; [9]): 1.1 |
| CC(C)[C@@H](N)CO [D-valinol] | 1.3 | 1.4 | – | – | 329 (±190) μM | 2488 (±573) pmol/mg protein/min | – | – | – |
| CC(C)(C)[C@H](N)CO [L-tert-Leucinol] | 1.3 | – | 1.4 | – | – | – | – | 1.9-fold for(S) ^a | uptake ratio OCT1 (transporter-overexpressing cells over EV control cells): mean (±SD, N) (OCT1 (SLC22A1) [6]): 1.4 (0.4, 3); uptake ratio OCT1 (transporter-overexpressing cells over EV control cells): mean (±SD, N) (OCT1 (SLC22A1) [6]; listed as L-tert-leucinol): 1.4; uptake ratio MATE2K (transporter-overexpressing cells over EV control cells): mean (±SD, N) (MATE2-K (SLC47A2) [7]): 0.9 (0.3, 3); uptake ratio MATE2K (transporter-overexpressing cells over EV control cells): mean (±SD, N) (MATE2-K (SLC47A2) [7]; listed as L-tert-leucinol): 0.9; uptake ratio OCT3 (transporter-overexpressing cells over EV control cells): mean (±SD, N) (OCT3 (SLC22A3)): 2.1 (0.5, 3); uptake ratio OCT3 (transporter-overexpressing cells over EV control cells): mean (±SD, N) (OCT3 (SLC22A3); listed as L-tert-leucinol): 2.1; uptake ratio OCT2 (transporter-overexpressing cells over EV control cells): mean (±SD, N) (OCT2 (SLC22A2) [5]): 10.8 (1.4, 3) ^b; uptake ratio OCT2 (transporter-overexpressing cells over EV control cells): mean (±SD, N) (OCT2 (SLC22A2) [5]; listed as L-tert-leucinol): 10.8; uptake ratio MATE1 (transporter-overexpressing cells over EV control cells): mean (±SD, N) (MATE1 (SLC47A1) [8]): 0.7 (0.2, 3); uptake ratio MATE1 (transporter-overexpressing cells over EV control cells): mean (±SD, N) (MATE1 (SLC47A1) [8]; listed as L-tert-leucinol): 0.7 |
| CC(C)[C@H](N)CO [L-valinol] | – | – | 1.04 | 1.5 | 362(±156) μM | 4970 (±967) pmol/mg protein/min | 2.0 | 1.04-fold for (S) | – |
